Legend:
[1] = biological target: T1, endogenous mouse MPO (Mus musculus, UniProt P11247); assay: LPS induced myositis, MR imaging at 4.7 T; format: in vivo; conditions: mice with LPS induced myositis
T1 construct: endogenous in cells; host or cells: inflammatory cells recruited by LPS in C57BL6 male mice (Matrigel site in the thigh, or flank muscle myositis)
T1 sequence (P11247 139-718): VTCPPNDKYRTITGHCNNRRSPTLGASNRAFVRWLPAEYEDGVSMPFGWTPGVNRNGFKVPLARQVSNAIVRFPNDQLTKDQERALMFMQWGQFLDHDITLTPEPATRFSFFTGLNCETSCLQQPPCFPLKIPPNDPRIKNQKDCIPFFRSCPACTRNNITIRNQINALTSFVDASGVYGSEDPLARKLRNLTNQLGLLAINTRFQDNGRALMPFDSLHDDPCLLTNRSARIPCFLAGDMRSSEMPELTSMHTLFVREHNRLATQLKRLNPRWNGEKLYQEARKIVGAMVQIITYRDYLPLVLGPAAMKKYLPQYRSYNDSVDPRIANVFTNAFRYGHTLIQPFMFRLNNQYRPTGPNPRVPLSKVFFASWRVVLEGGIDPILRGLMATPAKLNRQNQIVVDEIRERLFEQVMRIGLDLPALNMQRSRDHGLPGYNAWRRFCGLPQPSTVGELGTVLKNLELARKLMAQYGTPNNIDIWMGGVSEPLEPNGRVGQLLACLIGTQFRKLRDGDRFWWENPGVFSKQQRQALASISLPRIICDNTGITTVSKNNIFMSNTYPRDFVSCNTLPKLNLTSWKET
Experimental: (§1) The MR imaging experiments were performed on a 1.5 T GE Excite scanner and a 4.7 T Bruker Pharmascan scanner. For all MR imaging experiments, precontrast T2-(TR=2000, TE=100, ETL=8, NEX=4, fast spin echo sequence) and T1-weighted images (TR=500, TE=11, NEX=4, spin echo sequence) with fat saturation were initially performed to locate the gels or area of inflammation. The substrates (0.3 mmol/kg) were subsequently injected via the tail vein of the mouse. The mouse was immediately imaged after the injection of the contrast agent using multiple T1-weighted sequences with fat saturation for at least 3 hours.
(§2) Ten-week old C57BL6 male mice were obtained from Jackson Laboratories. A total of 22 mice were used for the study. • 1. MPO/Matrigel imaging experiments: Matrigel™ (Beckton-Dickinson), a […] basement membrane matrix gel was used to immobilize human MPO and glucose oxidase (to supply H2O2 required for detecting MPO oxidative activity, Calbiochem). This was chosen to reflect deposits of human MPO in inflamed tissue in a mouse model. 400 μL of a mixture of Matrigel™ and MEM (Cambrex) was injected slowly into the thighs of each mouse one hour prior to imaging. The right thigh mixture also contained 15 U of MPO and 4 U of glucose oxidase (Calbiochem), while the left thigh mixture contained no enzyme and thus serves as an internal control. […]

[2] = biological target: T1, endogenous mouse MPO; assay: LPS/Matrigel experiments, MR imaging; format: in vivo; conditions: mice; LPS/Matrigel right vs Matrigel left
Experimental: as §1, §2

| SMILES | enhancement at 50 minutes after injection [1] | increased enhancement on the MPO side [2] [fold] |
| --- | --- | --- |
| CC(C(=O)NCC(=O)NCCc1c[nH]c2ccc(O)cc12)N1CCN(CC(=O)[O-])CCN(CC(=O)[O-])CCN(CC(=O)[O-])CC1.[Gd+3] (centres unmarked) [5-HT-DOTA(Gd), Glycylmethyl DOTA(Gd) 5-Hydroxytryptamide] | still significant enhancement |  |
| O=C([O-])CN(CCN(CC(=O)[O-])CC(=O)NCCc1c[nH]c2ccc(O)cc12)CCN(CC(=O)[O-])CC(=O)NCCc1c[nH]c2ccc(O)cc12.[Gd+3] [2Gd^3+] |  | 1.3 |
